# Source: PMC6199744, “Development of Chemical Proteomics for the Folateome and Analysis of the Kinetoplastid Folateome” (ACS Infectious Diseases, 2018)
# “And” between values parts separate entries of the source, which are not always exact repeats. Identical values can stand only once. Like-named read-outs stand apart in the source and are kept apart here.
# System: L. major lysate proteins
# Experiment: Multitargeted bead mixture chemoproteomics, single concentration competition, proteome-wide
# Assay type: binding
# Conditions: for fold change: vehicle control = 1
compound,measurement,setting,value
NCCOCCOCC(=O)Nc1nc2ncc(CNc3ccc(C(=O)NC(CCC(=O)O)C(=O)O)cc3)nc2c(=O)[nH]1 (stereo not drawn) [compound 6],fold change vs vehicle control,,1.04 and 1.02
same,"protein inhibition, any captured protein (Figure 8)","bead mixture, L. major lysate",no protein inhibition >30%
same,fold change vs vehicle control,protein CLI00016468.1 KINETOPLASTID MEMBRANE PROTEIN-11,0.79
same,fold change vs vehicle control,"protein LINJ.03.0240 RIBOSOMAL PROTEIN L38, PUTATIVE",1.35
same,fold change vs vehicle control,"protein LINJ.11.0780 40S RIBOSOMAL PROTEIN S21, PUTATIVE",1.03
same,fold change,protein LINJ.11.0960 40S RIBOSOMAL PROTEIN S5,1.03
same,fold change vs vehicle control,"protein LINJ.13.0990 PROTEASOME REGULATORY ATPASE SUBUNIT 2, PUTATIVE",0.92
same,fold change vs vehicle control,"protein LINJ.15.0330 RIBONUCLEOPROTEIN P18, MITOCHONDRIAL PRECURSOR, PUTATIVE",0.98
same,fold change,"protein LINJ.19.0090 FIBRILLARIN, PUTATIVE",0.87
same,fold change relative to vehicle control,"protein LINJ.23.0860, 3-KETOACYL-COA THIOLASE, PUTATIVE",1.25
same,fold change relative to vehicle control,"protein LINJ.24.2300, 60S RIBOSOMAL PROTEIN L12, PUTATIVE",1
same,fold change vs vehicle control,"protein LINJ.25.2230 SUCCINYL-COA […] SUBUNIT, PUTATIVE",1.06
same,fold change vs vehicle control,"protein LINJ.26.1630 40S RIBOSOMAL PROTEIN S33, PUTATIVE",1.13
same,fold change vs vehicle control,"protein LINJ.28.1100 RIBOSOMAL PROTEIN S20, PUTATIVE",0.92
same,fold change relative to vehicle control,"protein LINJ.28.1940, REPLICATION FACTOR A, 51KDA SUBUNIT, PUTATIVE",0.96
same,fold change,"protein LINJ.28.2280 DYNEIN LIGHT CHAIN LC6, FLAGELLAR OUTER ARM, PUTATIVE",0.7
same,fold change,"protein LINJ.28.2870 PROTEIN PHOSPHATASE 4 CATALYTIC SUBUNIT, PUTATIVE",0.82
same,fold change relative to vehicle control,"protein LINJ.31.1600, […] OXIDASE VIII (COX VIII), PUTATIVE",0.8
same,fold change relative to vehicle control,"protein LINJ.33.1730, CYCLOPHILIN 4, PUTATIVE",1.42
same,fold change vs vehicle control,"protein LINJ.34.0670 […]-ATP-ASE SUBUNIT 11, PUTATIVE,19S […]",1.08
same,fold change vs vehicle control,"protein LINJ.36.0780 PROTEIN KINASE, PUTATIVE,MITOGEN-ACTIVATED PROTEIN KINASE, PUTATIVE",1.16
same,fold change relative to vehicle control,"protein LINJ.36.3960, BASIC TRA[…] 3A, PUTATIVE",1.37
same,fold change vs vehicle control,"protein LINJ.36.4070 EUKARYOTIC TRANSLATION INITIATION FACTOR 3 SUBUNIT, PUTATIVE",0.98
same,fold change relative to vehicle control,"protein LINJ.36.4080, HY[…], CONSERVED",1.12
same,fold change,protein LINJ.36.4180 HS1VU COMPLEX P[…]-LIKE,1.02
same,fold change vs vehicle control,"protein LINJ.[…] LONG-CHAIN-FATTY-ACID-COA LIGASE, PUTATIVE",0.98
same,fold change,"protein LMJF.01.0570 TRIC[…], PUTATIVE",0.96
same,fold change relative to vehicle control,"protein LMJF.03.0200, DELTA-1-PYRROLINE-5-CARBOXYLATE DEHYDROGENASE, PUTATIVE",1.14
same,fold change,"protein LMJF.03.0230 LONG CHAIN FATTY ACYL COA SYNTHETASE, PUTATIVE",1
same,fold change,"protein LMJF.03.0980 ELONGATION INITIATION FACTOR 2 ALPHA SUBUNIT, PUTATIVE",0.99
same,fold change vs vehicle control,"protein LMJF.04.0630 HY[…], CONSERVED",1.04
same,fold change vs vehicle control,protein LMJF.04.1230 actin,1.07
same,fold change,"protein LMJF.05.0100 PHOSPHOPROTEIN PHOSPHATASE, PUTATIVE",0.99
same,fold change,"protein LMJF.05.0280 PROTEIN TYROSINE PHOSPHATASE, PUTATIVE",0.92
same,fold change,protein LMJF.05.0510 ATPASE ALPHA SUBUNIT,1.08
same,fold change,protein LMJF.05.1040 STOMATIN-LIKE PROTEIN,0.97
same,fold change,"protein LMJF.06.0650 LANOSTEROL SYNTHASE, PUTATIVE",0.97
same,fold change vs vehicle control,protein LMJF.07.0700 TOPOISOMERASE-RELATED FUNCTION PROTEIN-LIKE PROTEIN,0.83
same,fold change,protein LMJF.07.1000 RNA BINDING PROTEIN-LIKE PROTEIN,0.9
same,fold change relative to vehicle control,"protein LMJF.07.1140, PEPTIDE […] REDUCTASE-LIKE",1.14
same,fold change,"protein LMJF.08.0510 RIBOSE-PHOSPHATE PYROPHOSPHOKINASE, PUTATIVE",0.97
same,fold change vs vehicle control,protein LMJF.08.0550 T[…]-LIKE PROTEIN,1.05
same,fold change relative to vehicle control,"protein LMJF.08.1030, cathepsin L-like protease",0.94
same,fold change vs vehicle control,"protein LMJF.08.1100 HY[…], CONSERVED",1.01
same,fold change vs vehicle control,"protein LMJF.09.1010 HYPOTHETICAL PROTEIN, CONSERVED",0.88
same,fold change relative to vehicle control,"protein LMJF.09.1120, MIT[…] BINDING PROTEIN 2,MRP2, GBP25",1.13
same,fold change vs vehicle control,"protein LMJF.09.1260 HYPOTHETICAL PROTEIN, CONSERVED",0.98
same,fold change,"protein LMJF.10.0210 NUCLEOLAR PROTEIN, PUTATIVE",1.03
same,fold change vs vehicle control,"protein LMJF.10.0310 PROTEIN TRANSPORT PROTEIN SEC23, PUTATIVE",0.91
same,fold change,"protein LMJF.11.0590 3-[…]-COA C[…] SUBUNIT, PUTATIVE",0.92
same,fold change relative to vehicle control,"protein LMJF.11.0630, AMINOPEPTIDASE, PUTATIVE,METALLO-PEPTIDASE, CLAN MF, FAMILY M17",1.13
same,fold change vs vehicle control,"protein LMJF.11.1050 PRETRA[…], ALPHA SUBUNIT, PUTATIVE,SEC61-LIKE (PRETRA[…]) PROTEIN, PUTATIVE",1.04
same,fold change,"protein LMJF.11.1160 PROTEIN TRANSPORT PROTEIN SEC31, PUTATIVE",0.87
same,fold change,"protein LMJF.12.0030 PROTEASOME BETA-1 SUBUNIT, PUTATIVE",0.9
same,fold change vs vehicle control,"protein LMJF.12.0210 […] […]1L8 3, PUTATIVE",0.98
same,fold change relative to vehicle control,"protein LMJF.12.0530, GLUCOSE-6-PHOSPHATE ISOMERASE",1.41
same,fold change,protein LMJF.12.0630 ALANINE AMINOTRANSFERASE,0.95
same,fold change vs vehicle control,"protein LMJF.13.1230 40S RIBOSOMAL PROTEIN S4, PUTATIVE",1.22
same,fold change vs vehicle control,"protein LMJF.14.0310 PROTEASOME ALPHA 3 SUBUNIT, PUTATIVE",0.96
same,fold change,"protein LMJF.14.0660 FATTY ACID ELONGASE, PUTATIVE",1.14
same,fold change,"protein LMJF.14.0670 FATTY ACID ELONGASE, PUTATIVE",0.98
same,fold change vs vehicle control,"protein LMJF.14.0680 FATTY ACID ELONGASE, PUTATIVE",1.13
same,fold change,protein LMJF.14.0990 ADP/ATP MIT[…]-LIKE PROTEIN,1.32
same,fold change vs vehicle control,protein LMJF.14.1160 ENOLASE,1.1
same,fold change,"protein LMJF.14.1440 HYPOTHETICAL PROTEIN, CONSERVED (cytoskeleton associated protein, putative)",0.82
same,fold change,"protein LMJF.15.0040 HYPOTHETICAL PROTEIN, CONSERVED (Possible lysine decarboxylase, putative)",0.84
